{"source": "patent US10829452B2", "about": "“Histone methyltransferase inhibitors” (GLOBAL BLOOD THERAPEUTICS, INC., priority 2016, dated 2020)", "note": "Where a name gives a salt, the structure may show the parent alone.", "data": [{"target": "T1, G9a (Homo sapiens, UniProt Q96KQ7)", "T1 sequence (Q96KQ7 1-1210)": "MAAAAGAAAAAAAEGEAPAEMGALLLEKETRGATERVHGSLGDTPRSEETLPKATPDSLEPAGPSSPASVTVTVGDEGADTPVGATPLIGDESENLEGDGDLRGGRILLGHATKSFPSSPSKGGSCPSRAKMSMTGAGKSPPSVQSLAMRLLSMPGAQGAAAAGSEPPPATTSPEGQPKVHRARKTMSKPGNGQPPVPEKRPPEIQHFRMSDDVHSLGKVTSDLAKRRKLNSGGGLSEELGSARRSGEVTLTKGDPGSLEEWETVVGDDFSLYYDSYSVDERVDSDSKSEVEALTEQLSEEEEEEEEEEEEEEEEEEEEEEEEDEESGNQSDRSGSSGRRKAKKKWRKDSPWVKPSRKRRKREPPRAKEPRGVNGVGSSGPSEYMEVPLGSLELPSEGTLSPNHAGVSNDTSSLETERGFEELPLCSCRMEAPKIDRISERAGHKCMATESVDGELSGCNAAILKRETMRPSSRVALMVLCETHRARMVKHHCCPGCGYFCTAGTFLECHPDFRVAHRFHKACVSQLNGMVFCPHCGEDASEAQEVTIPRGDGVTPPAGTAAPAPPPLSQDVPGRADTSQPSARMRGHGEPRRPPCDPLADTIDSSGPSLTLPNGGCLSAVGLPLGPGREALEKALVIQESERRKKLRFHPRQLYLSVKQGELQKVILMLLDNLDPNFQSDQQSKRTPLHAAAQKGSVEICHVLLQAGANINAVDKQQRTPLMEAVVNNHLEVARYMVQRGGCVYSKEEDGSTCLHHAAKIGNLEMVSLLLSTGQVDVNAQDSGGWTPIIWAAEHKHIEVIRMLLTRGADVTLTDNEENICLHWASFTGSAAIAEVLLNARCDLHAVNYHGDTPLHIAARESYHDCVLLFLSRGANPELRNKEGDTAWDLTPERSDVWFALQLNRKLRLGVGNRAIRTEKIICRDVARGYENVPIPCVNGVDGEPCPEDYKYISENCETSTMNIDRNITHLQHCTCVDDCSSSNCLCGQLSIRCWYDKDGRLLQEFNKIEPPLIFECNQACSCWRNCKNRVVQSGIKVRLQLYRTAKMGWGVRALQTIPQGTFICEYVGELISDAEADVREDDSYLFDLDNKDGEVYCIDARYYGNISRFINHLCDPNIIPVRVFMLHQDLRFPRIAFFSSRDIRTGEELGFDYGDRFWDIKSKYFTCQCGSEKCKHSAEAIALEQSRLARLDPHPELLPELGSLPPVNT", "test": "G9a AlphaLISA enzymatic activity assay", "format": "biochemical", "conditions": "0.15 nM G9a, 15 uM S-adenosyl-methionine, 100 nM biotinylated histone 3 peptide (1-21), 1 hour at room temperature; read-out: G9a in (uM) (IC50, concentration that produced 50% inhibition)", "from_the_text": "The G9a AlphaLISA assay was used to detect the methyl modifications of a biotinylated histone H3 peptide by the compounds. These modifications are done by the histone methyl transferase activity of the G9a enzyme. The assay consists of reading a chemiluminescent signal at 615 nm; this signal is generated by a laser excitation at 680 nm that transfers a reactive singlet oxygen between the donor beads and acceptor beads. Donor beads are streptavidin conjugated and bind to the biotin on the peptide. Acceptor beads are conjugated with an antibody that recognizes the specific G9a methyl mark on the peptide. If there is a methyl mark on the peptide, the acceptor beads will bind to the peptide. Upon binding, the acceptor beads will be in close proximity (<200 nm) of the donor beads and when the donor beads are excited, the transfer of the oxygen can occur and a strong signal will be generated. If there is no methyl mark, the interaction between beads will not occur and signal will be at background levels.\nFor the assay, the following buffer was used to set up reactions: 50 mM Tris-HCl pH9, 50 mM NaCl, 0.01% Tween-20 and 1 mM DTT (added fresh prior to starting the reactions). The assay is set up by adding a final concentration of 0.15 nM G9a, 15 uM S-adenosyl-methionine and, 100 nM biotinylated histone 3 peptide (1-21). The reaction is incubated at room temperature for 1 hour, and subsequently quenched by the addition of the acceptor beads (anti-H3k9me2 AlphaLISA acceptor beads, PerkinElmer # AL117) at a final concentration of 20 ug/mL. The acceptor beads are incubated for 1 hour. After 1 hour, the donor beads are added at a final concentration of 20 ug/mL (Alpha Streptavidin donor beads, PerkinElmer #6760002). Donor beads are incubated for 0.5 hours. Both donor and acceptor beads are resuspended in AlphaLISA 5X Epigenetics Buffer 1 Kit (PerkinElmer # AL008) prior to addition to the reaction. All manipulations and incubations with the donor and acceptor beads are done in subdued light. Signal is detected in an EnVision plate reader in Alpha mode (see ACS Med Chem Lett. 2014 Jan. 2; 5(2):205-9. doi: 10.1021/m1400496h. eCollection 2014. Discovery and development of potent and selective inhibitors of histone methyltransferase g9a.)\nPercent inhibition was calculated for each compound dilution and the concentration that produced 50% inhibition was calculated. This value is presented as the IC50.", "units": {"IC50": "µM"}, "values": [{"smiles": "COc1cc2c3c(c(NC4CC4)nc2cc1OCCCN1CCCC1)COCC3", "note": "[Example 55, N-cyclopropyl-9-methoxy-8-[3-(pyrrolidin-1-yl)propoxy]-1H,2H,4H-pyrano[3,4-c]-quinolin-5-amine formate]", "IC50": 0.32}, {"smiles": "COc1cc2c3c(c(C4CC4)nc2cc1OCCCN1CCCC1)CCC(C)N3", "note": "(centres unmarked) [Example 32, 1-[3-({5-cyclopropyl-9-methoxy-2-methyl-1H,2H,3H,4H-benzo[h]1,6-naphthyridin-8-yl}oxy)propyl]pyrrolidine trifluoroacetate]", "IC50": 0.022}, {"smiles": "COc1cc2c3c(c(-c4ccccc4)nc2cc1OCCCN1CCCC1)CC(C)(C)N3", "note": "[Example 114, 1-[3-({8-methoxy-2,2-dimethyl-4-phenyl-1H,2H,3H-pyrrolo[3,2-c]quinolin-7-yl}oxy)propyl]pyrrolidine formate]", "IC50": 0.17}, {"smiles": "COc1cc2c3c(c(NC4CCC(O)C4)nc2cc1OCCCN1CCCC1)CCC3", "note": "(centres unmarked) [Example 126, 3-({8-methoxy-7-[3-(pyrrolidin-1-yl)propoxy]-1H,2H,3H-cyclopenta[c]quinolin-4-yl}amino)cyclopentan-1-ol formate]", "IC50": 0.15}, {"smiles": "CNc1nc2cc(OCCCN3CCCC3)c(OC)cc2c2c1COC2", "note": "[Example 59, 8-methoxy-N-methyl-7-[3-(pyrrolidin-1-yl)propoxy]-1H,3H-furo[3,4-c]quinolin-4-amine formate]", "IC50": 0.23}, {"smiles": "COc1cc2c3c(c(O)nc2cc1OCCCN1CCCC1)CCCC3", "note": "[Example 38, 2-methoxy-3-[3-(pyrrolidin-1-yl)propoxy]-7,8,9,10-tetrahydrophenanthridin-6-ol trifluoroacetate]", "IC50": 3}, {"smiles": "COc1cc2c3c(c(-c4ccccc4)nc2cc1OCCCN1CCCC1)CCC3", "note": "[Example 111, 1-[3-({8-methoxy-4-phenyl-1H,2H,3H-cyclopenta[c]quinolin-7-yl}oxy)propyl]pyrrolidine formate]", "IC50": 4.9}, {"smiles": "COc1cc2c3c(c(NC(C)C)nc2cc1OCCCN1CCCC1)CN(C)CC3", "note": "[Example 71, 9-methoxy-3-methyl-N-(propan-2-yl)-8-[3-(pyrrolidin-1-yl)propoxy]-1H,2H,3H,4H-benzo[c]2,7-naphthyridin-5-amine formate]", "IC50": 1.1}, {"smiles": "COc1cc2c3c(c(NCC(C)C)nc2cc1OCCCN1CCCC1)CC(C)(C)C3", "note": "[Example 95, N-isobutyl-8-methoxy-2,2-dimethyl-7-(3-(pyrrolidin-1-yl)propoxy)-2,3-dihydro-1H-cyclopenta[c]quinolin-4-amine formate]", "IC50": 0.07}, {"smiles": "COc1cc2c3c(c(NC4COC4)nc2cc1OCCCN1CCCC1)CCC3", "note": "[Example 44, 8-methoxy-N-(oxetan-3-yl)-'7-[3-(pyrrolidin-1-yl)propoxy]-1H,2H,3H-cyclopenta[c]quinolin-4-amine formate]", "IC50": 5.8}, {"smiles": "COc1cc2c3c(c(NC(C)C)nc2cc1OCCCN1CCCC1)CCC(C)N3", "note": "(centres unmarked) [Example 30, 9-methoxy-2-methyl-N-(propan-2-yl)-8-[3-(pyrrolidin-1-yl)propoxy]-1H,2H,3H,4H-benzo[h]1,6-naphthyridin-5-amine formate]", "IC50": 0.008}, {"smiles": "COc1cc2c3c(c(NC(C)C)nc2cc1OCCCN1CCOCC1)CCC3", "note": "[Example 112, 8-methoxy-7-[3-(morpholin-4-yl)propoxy]-N-(propan-2-yl)-1H,2H,3H-cyclopenta[c]quinolin-4-amine trifluoroacetate]", "IC50": "> 10"}, {"smiles": "COc1cc2c3c(c(N(C)C(C)C)nc2cc1OCCCN1CCCC1)CCC3", "note": "[Example 9, 8-methoxy-N-methyl-N-(propan-2-yl)-7-[3-(pyrrolidin-1-yl)propoxy]-1H,2H,3H-cyclopenta[c]quinolin-4-amine trifluoroacetate]", "IC50": 0.69}, {"smiles": "CNc1nc2cc(OCCCN3CCCC3)c(OC)cc2c2c1CC(O)CC2", "note": "(centres unmarked) [Example 20, 2-methoxy-6-(methylamino)-3-[3-(pyrrolidin-1-yl)propoxy]-7,8,9,10-tetrahydrophenanthridin-8-ol formate]", "IC50": 0.14}, {"smiles": "COc1cc2c3c(c(N[C@H]4CCC[C@H]4O)nc2cc1OCCCN1CCCC1)CCC3", "note": "(racemic) [Example 125, (1R,2S)-2-({8-methoxy-7-[3-(pyrrolidin-1-yl)propoxy]-1H,2H,3H-cyclopenta[c]quinolin-4-yl}amino)cyclopentan-1-ol and (1S,2R)-2-({8-methoxy-7-[3-(pyrrolidin-1-yl)propoxy]-1H,2H,3H-cyclopenta[c]quinolin-4-yl}amino)cyclopentan-1-ol (1:1) mixture as formate salt]", "IC50": 1}, {"smiles": "COc1cc2c3c(c(O)nc2cc1OCCCN1CCCC1)CCC3", "note": "[Example 37, 8-methoxy-7-[3-(pyrrolidin-1-yl)propoxy]-1H,2H,3H-cyclopenta[c]quinolin-4-ol trifluoroacetate]", "IC50": 1.3}, {"smiles": "COc1cc2c3c(c(NCCO)nc2cc1OCCCN1CCCC1)CCC3", "note": "[Example 4, 2-({8-methoxy-7-[3-(pyrrolidin-1-yl)propoxy]-1H,2H,3H-cyclopenta[c]quinolin-4-yl}amino)ethan-1-oltrifluoroacetate trifluoroacetate]", "IC50": 0.04}, {"smiles": "COc1cc2c3c(c(C4CCOC4)nc2cc1OCCCN1CCCC1)CCC3", "note": "(centres unmarked) [Example 98, 1-(3-{[8-methoxy-4-(oxolan-3-yl)-1H,2H,3H-cyclopenta[c]quinolin-7-yl]oxy}propyl)pyrrolidine formate]", "IC50": "> 10"}, {"smiles": "CCNc1nc2cc(OCCCN3CCCC3)c(OC)cc2c2c1COCC2", "note": "[Example 58, N-ethyl-9-methoxy-8-[3-(pyrrolidin-1-yl)propoxy]-1H,2H,4H-pyrano[3,4-c]quinolin-5-amine formate]", "IC50": 0.17}, {"smiles": "COc1cc2c3c(c(NC4CCC4)nc2cc1OCCCN1CCCC1)CCC3", "note": "[Example 7, N-cyclobutyl-8-methoxy-7-[3-(pyrrolidin-1-yl)propoxy]-1H,2H,3H-cyclopenta[c]quinolin-4-amine formate]", "IC50": 0.045}, {"smiles": "COc1cc2c3c(c(NCC(C)C)nc2cc1OCCCN1CCCC1)CCC3", "note": "[Example 103, 8-methoxy-N-(2-methylpropyl)-7-[3-(pyrrolidin-1-yl)propoxy]-1H,2H,3H-cyclopenta[c]quinolin-4-amine trifluoroacetate]", "IC50": 0.027}, {"smiles": "COc1cc2c3c(c(C4CCCC4)nc2cc1OCCCN1CCCC1)CCCCN3", "note": "[Example 79, 1-[3-({6-cyclopentyl-10-methoxy-1H,2H,3H,4H,5H-azepino[3,2-c]quinolin-9-yl}oxy)propyl]pyrrolidine triflate]", "IC50": 0.003}, {"smiles": "COc1cc2c3c(c(NC4CCOCC4)nc2cc1OCCCN1CCCC1)CCCC3", "note": "[Example 12, 2-methoxy-N-(oxan-4-yl)-3-[3-(pyrrolidin-1-yl)propoxy]-7,8,9,10-tetrahydrophenanthridin-6-amine trifluoroacetate]", "IC50": 0.52}]}]}
